From patent US11179455B2, “Use of a growth hormone secretagogue peptide as a vaccine adjuvant” (priority 2016, dated 2021)
Bridge positions count the residues as written; N and C are the ends. Square brackets hold non-standard residues; d marks the D form. Ends that are not written are not given here.

What was measured:
rainbow trout leucocytes = settings: cited from earlier work
activated macrophages = settings: mouse, in vivo; cited from earlier work
newly hatching chickens = settings: dose of 100 ng in ovo, day 10 of incubation; cited from earlier work
P0 [1] = assay: Anti-P0 IgM response to P0-TT in clarias; assay type: in vivo, Clarias gariepinus; settings: i.p.; P0-TT 1 μg/g + 20 μg peptide per animal, Montanide ISA 50; vs P0-TT without peptide; day 28
Protocol: […]. For the experiment, 4 study groups of C. gariepinus were formed, with 12 animals in each one. These animals were immunized by i.p. route with 1 μg of the P0-TT protein per gram of animal weight (Group 2) or with the same dose of the chimeric protein P0-TT (1 μg/g of animal weight) co-administered with 20 μg of either GHRP-6 or A233 per animal (Groups 3 and 4, respectively), in a total volume of 120 μL. The control group (Group 1) received the same volume of PBS. The immunogens corresponding to all groups were emulsified with Montanide ISA 50 oily adjuvant. The immunization was performed under the same conditions, on days 0 and 14 of the administration schedule. Blood samples were taken at days 0, 21, 28 and 35 counted from the start of the experiment.

OVA [2] = assay: Humoral immune response against OVA in mice, A233 co-administered; assay type: in vivo, BALB/c mice; settings: i.p.; 5 μg OVA + 10 μg A233/animal, Freund's adjuvant; vs OVA alone; day 22
Protocol: To evaluate whether the peptide A233 exerts an adjuvant effect on OVA, 18 female BALB/c mice were used. Mice received 150 μL of immunogen in all groups, by i.p route, which was given to the animals on days 1 and 15 of the immunization schedule. Blood samples were taken at days 0 (preimmune serum), 8, 15, 22, 36, 43 and 50. The titers of total IgG present in the sera were evaluated. The animals were immunized with 5 μg OVA/animal and 10 μg A233/animal (Group 2), or with 5 μg of OVA/animal (Group 3). The control group was injected with PBS (Group 1). All immunogens were emulsified with Freund's adjuvant.

tilapia leukocytes = settings: in vitro; cited from earlier work
P0 [3] = assay: Anti-P0 IgM response to P0-my32 in tilapia; assay type: in vivo, Oreochromis niloticus; settings: i.p., day 28; for Anti-P0 IgM titer: P0-my32 1 μg/g co-administrated with 20 μg peptide, Montanide ISA 50, vs P0-my32
Text: (§1) The chimeric protein P0-my32 was generated by cloning the complementary deoxyribonucleic acid (cDNA) encoding a 35 amino acid peptide of the L. salmonis P0 ribosomal protein fused to the N-terminal end of the cDNA encoding the my32 protein of the same ectoparasite (Carpio et al., 2013; Exp. Parasitol 135: 188-199), in a vector designed for the induced expression of genes of interest in the host bacterium E. coli. This protein was produced in the bacterium and purified, as a fusion protein with a tail of histidine, by metal chelate affinity chromatography.
(§2) For the accomplishment of the immunization experiment, 6 study groups of male juveniles of Oreochromis niloticus, were formed, with 15 animals each. In all groups, the immunogen was administered by i.p. route, adjuvanted with Montaide ISA 50.
(§3) The experimental groups received the following immunogens:
(§4) Group 2: P0-my32 (1 μg/g of fish weight)
(§5) Group 3: P0-my32 (1 μg/g of fish weight) co-administrated with 20 μg GHRP-6
(§6) Group 4: P0-my32 (1 μg/g of fish weight) co-administrated with 20 μg A233
(§7) Group 5: P0-my32 (1 μg/g of fish weight). The fish in this group were fed with feed formulated with 100 μg of GHRP-6 per kg of feed, twice daily, for one week before and one week after the administration of my32 in injections.
(§8) During the course of the experiment, the fish in groups 1 to 4 were fed twice daily with a balanced unmedicated commercial formula, at the rate of 1% of their body weight. Immunizations were performed on days 0 and 14 of the schedule. Blood samples were taken at days 0, 21, 28 and 35 from the start of the experiment.

my32 = assay: Anti-my32 IgM response to P0-my32 in tilapia; assay type: in vivo, Oreochromis niloticus; settings: i.p., day 28; for Anti-my32 IgM antibody titers: P0-my32 1 μg/g co-administrated with 20 μg peptide, Montanide ISA 50, vs P0-my32
Text: as §1, §2, §3, §4, §5, §6, §7, §8

tilapia larvae = settings: immersion baths; cited from earlier work
Aeromonas hydrophila [4] = assay: Agglutinating antibodies against Aeromonas hydrophila in common carp; assay type: in vivo, Cyprinus carpio; settings: i.p.; inactivated cells 1×10^8 CFU + 20 μg GHRP-6/fish + Montanide ISA 50; vs bacterium without GHRP-6; day 21
Protocol: The experiment was carried out with carps (C. carpio) of 40±10 g. These animals were kept in 600 L aquaria, at a temperature of 28±2° C. Three experimental groups, of 10 carps each, were established and injected by i.p. route with the following immunogens:
Group 1: PBS+Montanide ISA 50.
Group 2: Inactivated A. hydrophila cells (1×10^8 Colony Forming Units, abbreviated CFU)+Montanide ISA 50.
(§9) Group 3: Inactivated A. hydrophila cells (1×10^8 CFU)+20 μg GHRP-6/fish+Montanide ISA 50.
Fish were injected on days 0 and 14, and blood samples were collected from the caudal vein on days 0 and 21. […] The preparation of A. hydrophila cells and the measurement of antibody titers were performed according to previous reports (Yin et al. ((1996) Fish & Shellfish Immunol. 6, 57-69).

Aeromonas hydrophila [5] = assay: Controlled challenge with Aeromonas hydrophila in immunized common carp; assay type: in vivo, Cyprinus carpio; settings: challenge on day 21 by i.p injection of LD50 of the bacterium; mortality recorded for 7 days
Protocol: The experiment was carried out with common carp (C. carpio) of 30±5 g. These animals were kept in 250 L aquaria, at a temperature of 30±2° C. Three experimental groups, of 20 carps each, were established and the animals were injected by i.p. route with:
Group 1: PBS+Montanide ISA 50
Group 2: Inactivated A. hydrophila cells (1×10^8 CFU)+Montanide ISA 50
as §9
Fish were injected on day 0 and 14. The challenge was performed on day 21, by i.p injection of the lethal dose 50 (LD50) of the bacterium, and the mortality in each group was recorded for 7 days. The relative survival rate (RSR) was calculated as: RSR(%)=(% mortality of controls−% mortality of treated animals)/(% mortality of controls)×100.

OVA [6] = assay: Humoral immune response against OVA in mice, GHRP-6 co-administered; assay type: in vivo, BALB/c mice; settings: for Total IgG titers against OVA: GHRP-6 10 μg + OVA 5 μg/animal, Freund's adjuvant, vs OVA without GHRP-6
Protocol: Thirty-six female BALB/c mice were used. Six study groups, with 6 animals each, were separated. Three groups were immunized by s.c route and the rest of them were treated by i.p route. In all groups, the immunogens were emulsified with Freund's adjuvant.
Group 1: Placebo (phosphate buffered saline, abbreviated PBS). s.c route.
Group 2: Placebo (PBS). i.p. route.
Group 3: GHRP-6 at 10 μg/animal and OVA at 5 μg/animal. s.c. route.
Group 4 GHRP-6 at 10 μg/animal and OVA at 5 μg/animal. i.p route.
Group 5: OVA 5 μg/animal. s.c. route.
Group 6: OVA 5 μg/animal. i.p. route.
Mice received 150 μL of the immunogen in all groups, which was administered to the animals on days 1 and 15 of the immunization schedule. Blood extractions were performed on days 0 (pre-immune serum), 8, 15, 22, 36, 43 and 50. Total IgG titers, IgG1 and IgG2a were evaluated. Complete Freund's Adjuvant (CFA) was used in the first immunization and Incomplete Freund's Adjuvant (IFA) in the next one. The animals of the group immunized with GHRP-6 and OVA, by s.c route, had higher titers (with statistical significance: p<0.05) than those of the group receiving OVA without GHRP-6, by the same route, on days 22, 36, 43 and 50 of the experiment (FIG. 1A). Animals injected with the same immunogens, but by i.p. route, had the same behavior on days 36 and 43 of the experiment (FIG. 1 B).

[7] = test system: peptide P0 of R. sanguineus; assay: Humoral immune response against peptide P0 of R. sanguineus in mice, GHRP-6 co-administered; assay type: in vivo, BALB/c mice; settings: i.p.; 100 μg P0 + 200 μg GHRP-6, Freund's adjuvant; vs P0 without GHRP-6; day 36
Protocol: The peptide P0 is a fragment corresponding to the region of less sequence identity between the ribosomal protein P0 of the tick R. sanguineus and its mammalian host. To evaluate the humoral immune response stimulated by the co-administration of GHRP-6 and P0, 24 female, 6-week old BALB/c mice were selected and divided into three groups of 8 mice. Each animal received 150 μL of immunogen, by i.p route, on days 1, 15 and 29 of the immunization schedule. In the first immunization FCA was employed, and FIA was used in the other two administrations.
Group 3. 100 μg of P0 co-administrated with 200 μg of GHRP-6.
Blood samples were taken on days 0 (pre-immune serum), 8, 16, 21, 28, 36, 43, 50 and 58, to determine the levels of total IgG.

[8] = test system: C2 antigen, a Dengue virus capsid protein; assay: Humoral immune response against C2 antigen in mice, GHRP-6 co-administered; assay type: in vivo, BALB/c mice; settings: s.c.; 10 μg C2 + 10 μg GHRP-6, aluminum hydroxide; vs C2 without GHRP-6; day 28
Protocol: The C2 antigen, a Dengue virus capsid protein, was obtained as a recombinant protein in Escherichia coli, with a molecular weight of 15 kDa. To evaluate the humoral and cellular immune response in mice vaccinated with C2, in presence or absence of GHRP-6, 24 female BALB/c mice, 6-weeks old, were selected. They were distributed into 3 groups. Each animal was given an immunogen, according to the experimental group:
Group 2: 10 μg C2 co-administrated with 10 μg GHRP-6
In all groups, the immunogens further comprised aluminum hydroxide, also known as alum. Immunizations were performed by s.c route, on days 0, 15 and 30 of the immunization schedule. Blood samples were taken at days 0 (pre-immune), 7, 16, 21, 28 and 35, to assess total IgG titers.

juvenile tilapia = settings: orally fed; cited from earlier work
[9] = serum of day 36, s.c and i.p routes, OVA with vs without GHRP-6
[10] = Group 3 (with GHRP-6) vs Group 2

Q: What does the source list for “ghrelin: endogenous ligand for the growth hormone secretagogues receptor (GHS-R) (GSSFLSPEHQRVQQRKESKKPPAKLQPR; ends and bridges not checked; UniProt Q9UBU3 24-51, looked up)”?
A: Levels of GH messenger ribonucleic acid (rainbow trout leucocytes; in vitro): increases; Production of superoxide anion (rainbow trout leucocytes; in vitro): increases; Superoxide dismutase (rainbow trout leucocytes; in vitro): increases; Arthritis (activated macrophages): attenuated; Release of interleukin 6 (IL-6) from activated macrophages (activated macrophages): significantly inhibited; Release of nitric oxide from activated macrophages (activated macrophages): significantly inhibited; Count of heterophil, basophils and eosinophils, and heterophil/lymphocyte ratio (newly hatching chickens): increase; Lymphocytes (newly hatching chickens): decreased

Q: With [D-Lys3]-GHRP-6 as the substance, how does the “Production of reactive oxygen species (O^2′—) after prior incubation with antagonist” value (rainbow trout leucocytes; prior incubation before ghrelin) read?
A: decreased

Q: With “A233: growth hormone secretagogue peptide, structural analogue of GHRP-6 (GKFDLSPEHQ; lactam 2-4 (inferred))” as the substance, how does the “Anti-P0 IgM antibody titers” value (P0 [1]) read?
A: same effect

Q: What about the “Anti-OVA antibody titers (total IgG)” value (OVA [2]) of the same substance?
A: significant increase

Q: And the “Production of indicators of phagocytic activity, such as superoxide anion” value (tilapia leukocytes)?
A: stimulated

Q: And the “Anti-P0 IgM titer” value (P0 [3])?
A: increase

Q: And the “Anti-my32 IgM antibody titers” value (my32)?
A: increase

Q: What about the “Antioxidant defense, enzyme superoxide dismutase” value (tilapia larvae) of the same substance?
A: stimulates

Q: And the Antiprotease activity (tilapia larvae)?
A: stimulates

Q: And the Lectin titers (tilapia larvae)?
A: stimulates

Q: Which results are given for “His-D-Trp-Ala-Trp-D-Phe-Lys-NH2 (H[dW]AW[dF]K-NH2) [GHRP-6, synthetic growth hormone releasing peptide, hexamer, used as molecular adjuvant]”?
A: Titers of agglutinating antibodies against A. hydrophila (Aeromonas hydrophila [4]): significantly higher; Anti-P0 IgM antibody titers (P0 [1]): increase; Relative survival rate (RSR) (Aeromonas hydrophila [5]): 95%; Total IgG titers against OVA (OVA [6]; i.p. route, days 36 and 43): same behavior; IgG1/IgG2a (OVA [6]; intraperitoneal route, mean of the six animals in the group): significantly superior; Total IgG titers against OVA (OVA [6]; s.c. route, days 22, 36, 43 and 50, p<0.05): higher titers; IgG1 titers (OVA [6]; [9]): higher; IgG2a titers (OVA [6]; [9]): No significant differences; Number of anti-P0 responder animals, IgM titers greater than 1:1000 (P0 [3]; [10]): higher; Anti-P0 IgM titer (P0 [3]): same effect; Anti-P0 IgG titers [7]: significant increase; Anti-C2 IgG titer [8]: significant increase; Lectin titers (juvenile tilapia): increase; Number of intraepithelial lymphocytes of the gastric mucosa (juvenile tilapia): increase; Number of anti-my32 responder animals, IgM titers greater than 1:1000 (my32; [10]): higher; Anti-my32 IgM antibody titers (my32): increase

Q: With GHRP-2 as the substance, how does the Arthritis (activated macrophages) read?
A: attenuated

Q: And the “Release of interleukin 6 (IL-6) from activated macrophages” value (activated macrophages)?
A: significantly inhibited

Q: What about the “Release of nitric oxide from activated macrophages” value (activated macrophages) of the same substance?
A: significantly inhibited
